Measured values: US7297332B2, “Protease, a gene therefor and the use thereof” (Korean Research Institute of Bioscience and Biotechnology, priority 2000, dated 2007)
Entries after “also recorded” stand apart in the source; their conditions may differ.

System: protease derived from Aranicola proteolyticus
Assay: Effect of protease inhibitors on the protease (azocasein assay)
Assay type: biochemical, Aranicola proteolyticus HY-3
Conditions: for inhibition of the enzyme activity: 1 mM inhibitor, incubated at 37° C. for 5 minutes, azocasein substrate; for effect of metalloprotease inhibitor on protease activity: equal concentrations of inhibitors, FIG. 1
Protocol: Enzyme activity of the protease was measured according to the method described by Braun & Shmitz (Braun, V. & Schmitz, G., Arch. Microbiol. 124, 55-61, 1980). A substrate solution was prepared by dissolving 0.24 g of azocasein in 10 ml of 50 mM phosphate buffer (pH 7.5). The 300 □ of the substrate solution was mixed with 100 □ of bacterial culture solution and reacted at 37° C. for 30 minutes. Then, 300 □ of 10% trichloride acetate was added to the reaction solution and incubated at ambient temperature for 1 hour. The reaction solution was centrifuged at 7,000 rpm until pellet and supernatant was separated substantially. After adding 30 0 of 10% sodium hydroxide (NaOH) to the supernatant, the absorbance was measured at 420 nm. The enzymatic titer was defined as 1 unit by the 1.0 fold increment of absorbance value.
In order to examine the effects of protease inhibitors on the activity of the protease, the enzyme solution was added by 1 mM each of inhibitors enumerated below and incubated at 37° C. for 5 minutes before measuring relative enzyme activity. The inhibitors tested include antopain which is an aminopeptidase inhibitor, phosphoramidon which is a metalloendopeptidase inhibitor, pepstatin which is an aspartate protease inhibitor, E-64(L-trans-exoxysuccinyl leucylamido(4-fuanidino)butane) which is a cystein inhibitor, chymostatin which is a chymotrypsin inhibitor, leupeptin, petabloc SC, aprotinin, and PMSF which are serine protease inhibitors, phenanthroline and EDTA which are metalloprotease inhibitors.

Row | Compound | inhibition of the enzyme activity | effect of metalloprotease inhibitor on protease activity
1 | c1cnc2c(c1)ccc1cccnc12 [phenanthroline] | about 70% | lowered; also recorded: inhibited
2 | O=C(O)CN(CCN(CC(=O)O)CC(=O)O)CC(=O)O [EDTA] | about 30% | lowered; also recorded: inhibited
